“Also recorded” adds a separate entry of the source.

In the assay the test system is mixed glial primary culture. Description: Suppression of TNF-α release in mixed glial primary culture after exposure to LPS. The format is cell-based, murine. As to conditions: FIGS. 11A and 11B. How it is done:
In vitro methods have been developed using cultured cells for evaluating the ability of a compound, such as a peptide, to suppress glial activation. Laskowitz et al., (2001) Exp. Neurol., 167:74-85. Glial cell cultures were grown and maintained under standard conditions. Cultured glial cells may include primary murine mixed glial cell cultures, murine BV-2 microglial cells, and human C3 microglial cells. Adherent glial cells were washed with OptiMEM® medium (available from Invitrogen Corp.) to remove serum and covered with fresh OptiMEM® medium containing peptide.
Larger peptides or proteins may need to be tested at higher concentrations to observe measurable suppression of glial activation. If using primary murine cells and BV-2 cells, cells are stimulated with 100 ng/ml E. coli LPS (available from Sigma-Aldrich Co.), and supernatant is collected six hours after LPS stimulation and assayed for nitrite (using a colorimetric Griess reagent system, available from Promega Corp.) and/or TNF-α (using a solid-phase ELISA kit, available from Invitrogen Corp.). If using human C3 cells, cells are stimulated with 200 μg/ml polyinosinic acid 5′ (available from Sigma-Aldrich Co.), and supernatant is collected 5 days after stimulation and assayed for TNF-α using a solid-phase ELISA kit (available from Invitrogen Corp.).
The protective activity against brain injury-downregulating CNS inflammatory response was determined for ApoE mimetic peptides, VR-55 (SEQ ID NO: 4), VL-5-1 (SEQ ID NO: 5) and VL-5-3 (SEQ ID NO: 10).

Ac-VSRRR-NH2 [VR-55, Ac-VSRRR-NH2]: the “release of inflammatory cytokine TNF-α” value was “inhibition of microglial TNF-α secretion; also recorded: suppress the release of inflammatory cytokine TNF-α”.
